experiment: Chemical stability of the compound assessed as half life in phosphate buffer at pH 6.0; format: physicochemical

Compound	half-life [h]
CC(=O)Nc1ccc(OC(=O)CCN2CCCCC2)cc1.Cl	1.33
CC(=O)Nc1ccc(OC(=O)CCN(C)C)cc1.Cl	1.88
CC(C)[C@H](N)C(=O)Oc1ccc2c3c1O[C@H]1C(=O)CC[C@@]4(O)[C@@H](C2)N(CC2CC2)CC[C@]314.O=C(O)C(F)(F)F	0.53
CC(=O)Nc1ccc(OC(=O)CN(C)C)cc1.Cl	1.28
CC(=O)Nc1ccc(OC(=O)[C@@H]2CCCN2)cc1.Cl [ACETAMINOPHEN PROLINATE HYDROCHLORIDE]	0.248
CC(=O)Nc1ccc(OC(=O)[C@H](C)N)cc1.Cl [ACETAMINOPHEN ALANINATE HYDROCHLORIDE]	0.539
CC(=O)Nc1ccc(OC(=O)[C@@H](N)C(C)C)cc1.Cl [ACETAMINOPHEN VALINATE HYDROCHLORIDE]	1.52
CCN(CC)CC(=O)Oc1ccc(NC(C)=O)cc1.Cl	1.76
CCN(CC)CCC(=O)Oc1ccc(NC(C)=O)cc1.Cl	1.32

From ChEMBL document CHEMBL1795248, “N,N'-Dialkylaminoalkylcarbonyl (DAAC) prodrugs and aminoalkylcarbonyl (AAC) prodrugs of 4-hydroxyacetanilide and naltrexone with improved skin permeation properties” (Bioorg Med Chem Lett, 2011)
